In US11331271B2, “Buccal, sublingual and intranasal delivery of fospropofol” (The Johns Hopkins University, priority 2016, dated 2022):

System: healthy male volunteers
Assay: Human Study 1: treatment-emergent adverse events (TEAE), safety, Modified OAA/S
Type: in vivo
Protocol: In human study 1, fospropofol disodium was formulated as a sterile aqueous solution at a concentration of 20 mg/mL. Each vial provided contained 20 mL of solution, suitable for intravenous injection. Fospropofol was administered as a single dose of 400 mg orally, directly into the duodenum by gastroscopy or intravenously over 10 min. In human study 2, fospropofol disodium in capsules (200 mg) or matching placebo was administered orally.
The first study was an absolute bioavailability study of fospropofol conducted at a single center (PRA Health Sciences) in Groningen, Netherlands, as a three-way crossover study. The study enrolled 7 healthy male volunteers between 18 and 45 years of age inclusive, with a body mass index between 18 and 28 kg/m^2. Subjects stayed in the clinical unit for three consecutive periods of 3 days each, with a 3-day washout, between periods. For six subjects, the order of the administration routes was as follows—period 1: PO, period 2: ID, and period 3: IV. For one subject the order of the administration routes was the following—period 1: ID, period 2: IV and period 3: PO. In this study a single dose of 400 mg was administered by each route. Blinding and placebo control was impractical due to the requirement of unsedated endoscopic administration of fospropofol into the duodenum. Safety and overall pharmacodynamic effect was evaluated based on adverse events, vital signs, electrocardiogram (ECG), Modified Observer's Assessment of Alertness/Sedation (OAA/S) score, clinical laboratory tests, and physical examination.

For `CC(C)c1cccc(C(C)C)c1OCOP(=O)(O)O` [fospropofol], the “TEAE GASTROINTESTINAL DISORDERS, events (E)” value (400 mg ID) was 1, the “TEAE GASTROINTESTINAL DISORDERS, subjects (%)” value (400 mg ID) was 14% and the “TEAE GENERAL DISORDERS AND ADMINISTRATION SITE CONDITIONS, events (E)” value (400 mg ID) was 3. The “TEAE GENERAL DISORDERS AND ADMINISTRATION SITE CONDITIONS, subjects (%)” value (400 mg ID) was 43%, the “TEAE INFECTIONS AND INFESTATIONS, events (E)” value (400 mg ID) was 1 and the “TEAE INFECTIONS AND INFESTATIONS, subjects (%)” value (400 mg ID) was 14%. For the same molecule, the “TEAE NERVOUS SYSTEM DISORDERS, events (E)” value (400 mg ID) was 3, the “TEAE NERVOUS SYSTEM DISORDERS, subjects (%)” value (400 mg ID) was 43% and the “TEAE SKIN AND SUBCUTANEOUS TISSUE DISORDERS, events (E)” value (400 mg ID) was 1. The “TEAE SKIN AND SUBCUTANEOUS TISSUE DISORDERS, subjects (%)” value (400 mg ID) was 14%, the “TEAE TOTAL, events (E)” value (400 mg ID) was 9 and the “TEAE TOTAL, subjects (%)” value (400 mg ID) was 86%. The “TEAE dizziness, events (E)” value (400 mg ID) was 1, the “TEAE dizziness, subjects (%)” value (400 mg ID) was 14% and the “TEAE fatigue, events (E)” value (400 mg ID) was 2. For the same molecule, the “TEAE fatigue, subjects (%)” value (400 mg ID) was 29%, the “TEAE flatulence, events (E)” value (400 mg ID) was 1 and the “TEAE flatulence, subjects (%)” value (400 mg ID) was 14%. For the same molecule, the “TEAE herpes simplex, events (E)” value (400 mg ID) was 1, the “TEAE herpes simplex, subjects (%)” value (400 mg ID) was 14% and the “TEAE rash, events (E)” value (400 mg ID) was 1. The “TEAE rash, subjects (%)” value (400 mg ID) was 14%, the “TEAE somnolence, events (E)” value (400 mg ID) was 2 and the “TEAE somnolence, subjects (%)” value (400 mg ID) was 29%. The “TEAE subrapubic pain, events (E)” value (400 mg ID) was 1, the “TEAE subrapubic pain, subjects (%)” value (400 mg ID) was 14% and the “subjects with Modified OAA/S score of 4” value (400 mg ID) was 43%. For the same molecule, the “subjects with Modified OAA/S score of 4 (n of 7)” value (400 mg ID) was “Three”, the “TEAE BLOOD AND LYMPHATIC SYSTEM DISORDERS, events (E)” value (400 mg IV) was 1 and the “TEAE BLOOD AND LYMPHATIC SYSTEM DISORDERS, subjects (%)” value (400 mg IV) was 14%. For the same molecule, the “TEAE EYE DISORDERS, events (E)” value (400 mg IV) was 5, the “TEAE EYE DISORDERS, subjects (%)” value (400 mg IV) was 71% and the “TEAE GASTROINTESTINAL DISORDERS, events (E)” value (400 mg IV) was 4. The “TEAE GASTROINTESTINAL DISORDERS, subjects (%)” value (400 mg IV) was 43%, the “TEAE GENERAL DISORDERS AND ADMINISTRATION SITE CONDITIONS, events (E)” value (400 mg IV) was 9 and the “TEAE GENERAL DISORDERS AND ADMINISTRATION SITE CONDITIONS, subjects (%)” value (400 mg IV) was 57%. For the same molecule, the “TEAE MUSCULOSKELETAL AND CONNECTIVE TISSUE DISORDERS, events (E)” value (400 mg IV) was 2, the “TEAE MUSCULOSKELETAL AND CONNECTIVE TISSUE DISORDERS, subjects (%)” value (400 mg IV) was 29% and the “TEAE NERVOUS SYSTEM DISORDERS, events (E)” value (400 mg IV) was 31. The “TEAE NERVOUS SYSTEM DISORDERS, subjects (%)” value (400 mg IV) was 100%, the “TEAE PSYCHIATRIC DISORDERS, events (E)” value (400 mg IV) was 2 and the “TEAE PSYCHIATRIC DISORDERS, subjects (%)” value (400 mg IV) was 29%. For the same molecule, the “TEAE REPRODUCTVE SYSTEM AND BREAST DISORDERS, events (E)” value (400 mg IV) was 1, the “TEAE REPRODUCTVE SYSTEM AND BREAST DISORDERS, subjects (%)” value (400 mg IV) was 14% and the “TEAE SKIN AND SUBCUTANEOUS TISSUE DISORDERS, events (E)” value (400 mg IV) was 1. For the same molecule, the “TEAE SKIN AND SUBCUTANEOUS TISSUE DISORDERS, subjects (%)” value (400 mg IV) was 14%, the “TEAE TOTAL, events (E)” value (400 mg IV) was 56 and the “TEAE TOTAL, subjects (%)” value (400 mg IV) was 100%. For the same molecule, the “TEAE burning sensation, events (E)” value (400 mg IV) was 6, the “TEAE burning sensation, subjects (%)” value (400 mg IV) was 43% and the “TEAE catheter site pain, events (E)” value (400 mg IV) was 1. For the same molecule, the “TEAE catheter site pain, subjects (%)” value (400 mg IV) was 14%, the “TEAE diplopia, events (E)” value (400 mg IV) was 1 and the “TEAE diplopia, subjects (%)” value (400 mg IV) was 14%. For the same molecule, the “TEAE disorientation, events (E)” value (400 mg IV) was 1, the “TEAE disorientation, subjects (%)” value (400 mg IV) was 14% and the “TEAE dizziness postural, events (E)” value (400 mg IV) was 1. The “TEAE dizziness postural, subjects (%)” value (400 mg IV) was 14%, the “TEAE dizziness, events (E)” value (400 mg IV) was 3 and the “TEAE dizziness, subjects (%)” value (400 mg IV) was 43%. For the same molecule, the “TEAE dry mouth, events (E)” value (400 mg IV) was 1, the “TEAE dry mouth, subjects (%)” value (400 mg IV) was 14% and the “TEAE dyspepsia, events (E)” value (400 mg IV) was 1. For the same molecule, the “TEAE dyspepsia, subjects (%)” value (400 mg IV) was 14%, the “TEAE ecchymosis, events (E)” value (400 mg IV) was 1 and the “TEAE ecchymosis, subjects (%)” value (400 mg IV) was 14%. The “TEAE euphoric mood, events (E)” value (400 mg IV) was 1, the “TEAE euphoric mood, subjects (%)” value (400 mg IV) was 14% and the “TEAE fatigue, events (E)” value (400 mg IV) was 2. The “TEAE fatigue, subjects (%)” value (400 mg IV) was 29%, the “TEAE feeling abnormal, events (E)” value (400 mg IV) was 1 and the “TEAE feeling abnormal, subjects (%)” value (400 mg IV) was 14%. For the same molecule, the “TEAE feeling cold, events (E)” value (400 mg IV) was 1, the “TEAE feeling cold, subjects (%)” value (400 mg IV) was 14% and the “TEAE feeling drunk, events (E)” value (400 mg IV) was 1. For the same molecule, the “TEAE feeling drunk, subjects (%)” value (400 mg IV) was 14%, the “TEAE genital pruritis male, events (E)” value (400 mg IV) was 1 and the “TEAE genital pruritis male, subjects (%)” value (400 mg IV) was 14%. For the same molecule, the “TEAE lymph node pain, events (E)” value (400 mg IV) was 1, the “TEAE lymph node pain, subjects (%)” value (400 mg IV) was 14% and the “TEAE muscle fatigue, events (E)” value (400 mg IV) was 2. For the same molecule, the “TEAE muscle fatigue, subjects (%)” value (400 mg IV) was 29%, the “TEAE nausea, events (E)” value (400 mg IV) was 1 and the “TEAE nausea, subjects (%)” value (400 mg IV) was 14%. The “TEAE paresthesia, events (E)” value (400 mg IV) was 9, the “TEAE paresthesia, subjects (%)” value (400 mg IV) was 86% and the “TEAE proctalgia, events (E)” value (400 mg IV) was 1. The “TEAE proctalgia, subjects (%)” value (400 mg IV) was 14%, the “TEAE sluggishness, events (E)” value (400 mg IV) was 3 and the “TEAE sluggishness, subjects (%)” value (400 mg IV) was 43%. The “TEAE somnolence, events (E)” value (400 mg IV) was 5, the “TEAE somnolence, subjects (%)” value (400 mg IV) was 71% and the “TEAE speech disorder, events (E)” value (400 mg IV) was 6. For the same molecule, the “TEAE speech disorder, subjects (%)” value (400 mg IV) was 86%, the “TEAE tremor, events (E)” value (400 mg IV) was 1 and the “TEAE tremor, subjects (%)” value (400 mg IV) was 14%. The “TEAE visual disturbance, events (E)” value (400 mg IV) was 4, the “TEAE visual disturbance, subjects (%)” value (400 mg IV) was 54% and the “subjects with Modified OAA/S score of 4” value (400 mg IV) was 57%. For the same molecule, the “subjects with Modified OAA/S score of 4 (n of 7)” value (400 mg IV) was 4, the “time to resolution of euphoria” value (400 mg IV, one subject) was 34 min and the “TEAE GASTROINTESTINAL DISORDERS, events (E)” value (400 mg PO) was 1. For the same molecule, the “TEAE GASTROINTESTINAL DISORDERS, subjects (%)” value (400 mg PO) was 14%.
